Patent US7214495B2, “Screening method” (Takeda Pharmaceutical Company Limited, priority 2002, dated 2007)

Tests used:
human-derived GPR40 = biological target: T1, human-derived GPR40 (Homo sapiens, UniProt O14842); experiment: Intracellular calcium change (FLIPR) in CHO-K1 cells transiently expressing GPR40; type: cell-based; details: added in 10^−5 M to 10^−6 M; no response in vector-only control cells
T1 construct: The DNA fragment encoding human GPR40 was acquired by the following PCR procedures; expressed in transfected cells; host or cells: CHO-K1 (transient, Lipofectamine)
Experimental: The CHO-K1 cell line was cultured in HAM F-12 medium (Invitrogen) containing 10% fetal calf serum (Invitrogen), unless otherwise indicated. One day before transfection, 4.5×10^5 cells per 10 cm^2 were plated, followed by incubation in a CO2 incubator adjusted to a concentration of 5% CO2 at 37° C. for at least 15 hours. Using Lipofectamine reagent (Invitrogen), transfection procedures were carried out by modifications of the method attached to the reagent. When a 6-well plate was used for the incubator, the following procedures were performed. First, 2 tubes each having a 1.5 ml volume were prepared and 100 μl each of Opti-MEM-I medium (Invitrogen) was dispensed in each tube. Next, 1 μg of the expression vector was charged in one tube and in another tube, 6 μl of Lipofectamine reagent was charged, which were mixed together. The mixture was settled for 20 minutes at room temperature. To the solution, 800 μl of Opti-MEM-I medium was added and the resulting solution mixture for transfection was added to CHO-K1 cells, which had been previously washed with Opti-MEM-I medium. Then, the cells were incubated in a CO2 incubator for 6 hours. After the incubation, the cells were rinsed with PBS (Invitrogen), then scraped using 0.05% trypsin-EDTA solution (Invitrogen) and recovered by centrifugal operation. The cells obtained were counted and diluted to 5×10^4 cells per 200 μl of the medium. The dilution was dispensed onto a Black walled 96-well plate (Costar) in 200 μl each per well, followed by incubation overnight in a CO2 incubator. Various test samples were added to the CHO-K1 cells in which the receptor was transiently expressed by the transfection operation described above, whereby changes in the intracellular calcium ion level were determined using FLIPR (Molecular Device). In order to determine the changes in the intracellular calcium ion level on FLIPR, the cells were pre-treated by the following procedures. First, for the purpose of adding a fluorescent dye Fluo-3 AM (DOJIN) to the cells or washing the cells immediately before the FLIPR assay, an assay buffer was prepared. A solution obtained by adding 20 ml of 1M HEPES (pH 7.4) (DOJIN) to 1000 ml of HBSS (Invitrogen) was prepared (hereinafter HBSS/HEPES solution), to which 10 ml of a solution mixture obtained by dissolving 710 mg of Probenecid (Sigma) in 5 ml of 1N NaOH and further adding 5 ml of HBSS/HEPES solution was added. The resulting solution was used as the assay buffer. Next, 50 μg of Fluo-3AM was dissolved in 21 μl of DMSO (DOJIN) and an equal volume of 20% Pulronic acid (Molecular Probes) was added to and mixed with the solution. The mixture was then added to 10.6 ml of the assay buffer supplemented with 105 μl of fetal calf serum to prepare a fluorescent dye solution. The medium for the transfection-treated CHO-K1 cells was removed. Immediately thereafter, the fluorescent dye solution was dispensed in 100 μl each/well and the cells were incubated in a CO2 incubator for an hour so that the fluorescent dye was taken up into the cells. The cells after the incubation was washed with the assay buffer described above and set on FLIPR. A test sample added to the receptor-expressed CHO-K1 cells was prepared using the assay buffer and set on FLIPR at the same time. After various test samples were added thereto.
Following the pre-treatment above, changes in intracellular calcium level after addition of various test samples were measured on FLIPR.

[1] = test system: mouse pancreatic β cell line MIN6; experiment: Insulin secretion from MIN6 in KRBH buffer (immunoassay); type: cell-based; details: 22 mM glucose KRBH, 90 minutes
Experimental: The mouse pancreatic β cell line MIN6 incubated in a flask was scraped in PBS containing 2.5 mM EDTA and plated in a 96-well plate followed by incubation for 2 days. The medium used was the same as in EXAMPLE 24, namely, 4.5 g/l of glucose-containing Dulbecco's Modified Eagle Medium (DMEM, Invitrogen, Inc.) supplemented with 15% fetal calf serum (ThermoTrace, Inc.), 5.5 μM 2-mercaptethanol (Invitrogen, Inc.), 20 mM HEPES pH 7.3, 100 U/ml penicillin and 100 μg/ml streptomycin. The cells were washed twice with modified Krebs-Ringer bicarbonate buffer (KRBH, 116 mM NaCl, 4.7 mM KCl, 1.2 mM KH2PO4, 1.2 mM MgSO4, 2.5 mM CaCl2, 25 mM NaHCO3, 24 mM HEPES, pH 7.3), followed by preincubation at 37° C. in 5% CO2 for 30 minutes. The fatty acid diluted/prepared using the aforesaid KRBH buffer added with 22 mM glucose was added to the cells after the preincubation, followed by incubation under the conditions of 37° C. in 5% CO2 for 90 minutes. After the incubation, the supernatant of the cells was recovered and stored in a frozen state. The insulin content in the supernatant was assayed using an insulin immunoassay kit commercially available (Amersham Pharmacia, Inc.).
Based on the method of EXAMPLE 25, effects of glucose level when added with fatty acids were examined. The level of glucose, which was added to KRBH upon the addition of fatty acids, was varied to 0, 5.5, 11 and 22 mM to study the effects.
The insulin secretion enhancing activity in the m40i103-introduced MIN6 cells using HVJ Envelope VECTOR KIT GenomONE based on the method of EXAMPLE 18 was examined. The insulin secretion enhancing activity by fatty acids was examined according to the method of EXAMPLE 25.
Based on the procedures of EXAMPLE 25, an essential prerequisite of Ca^2+ ions in the extracellular fluid was examined. In preincubation and incubation with a sample, Ca^2+ ions were removed and 0.1 mM EGTA, which was a reagent for chelating Ca^2+ ions, was further added, and then the insulin secretion enhancing activity by fatty acids was examined in this case.
Based on the method of EXAMPLE 25, effects of Ca^2+ channel blocker (Nifedipine) and MAP kinase inhibitor (PD98059) were examined. In preincubation and incubation with a sample, the insulin secretion enhancing activity by fatty acids was examined when Nifedipine (10 μM) or PD98059 (50 μM) was added.
It is known that fatty acids have the property of binding to albumin. Based on the method of EXAMPLE 25, effects were examined when bovine serum albumin (BSA) was present. In preincubation and incubation with a sample, the insulin secretion activity by fatty acids was examined when 0.1% BSA was added to the buffer.

human GPR40 = biological target: T2, human GPR40 (Homo sapiens, UniProt O14842); experiment: EC50 by FLIPR calcium assay in CHO cells stably expressing human GPR40; type: cell-based; details: intracellular calcium, FLIPR, stable CHO line
T2 construct: The resulting fragment (ca. 1 kb) was introduced into vector pAKKO-111, which was used for transfection of CHO cells; expressed in transfected cells
Experimental: (§1) For determination of EC50 values, the CHO cell lines in which human-, mouse- and rat-derived GPR40 was stably expressed were used. Unless otherwise indicated, these CHO cell lines were incubated in α-MEM medium (Invitrogen) supplemented with 10% fetal calf serum (Invitrogen).
(§2) On the day before assay, the cells incubated to almost confluent stage were rinsed with PBS (Invitrogen), then scraped in 0.05% trypsin-EDTA solution (Invitrogen) and recovered by centrifugal operation. The number of the cells obtained was counted and diluted so as to contain 3×10^5 cells/1 mL of the medium. The dilution was dispensed in a Black welled 96-well plate (Coster) in 100 μL/well, followed by incubation overnight in a CO2 incubator. To the thus prepared CHO cells, various test samples were added and the changes in intracellular calcium level in this case were measured using FLIPR (Molecular Device). In order to determine the changes in the intracellular calcium ion level on FLIPR, the cells were pre-treated by the following procedures.
(§3) First, for the purpose of adding a fluorescent dye Fluo-3 AM (DOJIN) to the cells or washing the cells immediately before the FLIPR assay, an assay buffer was prepared. A solution obtained by adding 20 mL of 1M HEPES (pH 7.4) (DOJIN) to 1000 mL of HBSS (Invitrogen) was prepared (hereinafter HBSS/HEPES solution), to which 10 mL of a solution mixture obtained by dissolving 710 mg of Probenecid (Sigma) in 5 mL of 1N NaOH and further adding 5 mL of HBSS/HEPES solution was added. The resulting solution was used as the assay buffer. Next, 50 μg of Fluo-3AM was dissolved in 21 μL of DMSO (Wako) and an equal volume of 20% Pulronic acid (Molecular Probes) was added to and mixed with the solution. The mixture was then added to 10.6 mL of the assay buffer supplemented with 105 μL of fetal calf serum to prepare a fluorescent dye solution. […], the medium for the CHO cells again plated in a Black welled 96-well plate was removed. Immediately thereafter, the fluorescent dye solution was dispensed in 100 μL each/well and the cells were incubated in a CO2 incubator for an hour so that the fluorescent dye was taken up into the cells. The cells after the incubation was washed with the assay buffer described above and set on FLIPR. […] After the pre-treatment above was made, the changes in intracellular calcium level after the addition of various test samples were measured on FLIPR.

Mouse GPR40 = biological target: T3, Mouse GPR40 (Mus musculus, UniProt Q76JU9); experiment: EC50 by FLIPR calcium assay in CHO cells stably expressing mouse GPR40; type: cell-based; details: intracellular calcium, FLIPR, stable CHO line
T3 construct: expressed in transfected cells
Experimental: as §1, §2, §3

Rat GPR40 = biological target: T4, Rat GPR40 (Rattus norvegicus, UniProt Q8K3T4); experiment: EC50 by FLIPR calcium assay in CHO cells stably expressing rat GPR40; type: cell-based; details: intracellular calcium, FLIPR, stable CHO line
T4 construct: expressed in transfected cells
Experimental: as §1, §2, §3

MIN6 cells = experiment: FLIPR intracellular calcium assay using MIN6; type: cell-based, mouse; details: 10 μM fatty acid
Experimental: Mouse pancreatic β cell line MIN6 incubated in a flask was scraped using PBS containing 2.5 mM EDTA and diluted so as to contain 3×10^5 cells/1 mL of the medium. The dilution was dispensed in a Black welled 96-well plate (Coster) in 100 μL/well, followed by incubation in a CO2 incubator for 2 days. The medium used was 4.5 g/l of glucose-containing Dulbecco's Modified Eagle Medium (DMEM, Invitrogen, Inc.) supplemented with 15% fetal calf serum (ThermoTrace, Inc.), 5.5 μM 2-mercaptethanol (Invitrogen, Inc.), 20 mM HEPES pH 7.3, 100 U/ml penicillin and 100 μg/ml streptomycin. To the thus prepared MIN6 cells, various fatty acids (10 μM) were added and the changes in intracellular calcium level in this case were measured using FLIPR (Molecular Device). The changes in the intracellular calcium ion level on FLIPR were assayed in accordance with the procedures described in EXAMPLE 24.

T4 sequence (Q8K3T4 whole entry): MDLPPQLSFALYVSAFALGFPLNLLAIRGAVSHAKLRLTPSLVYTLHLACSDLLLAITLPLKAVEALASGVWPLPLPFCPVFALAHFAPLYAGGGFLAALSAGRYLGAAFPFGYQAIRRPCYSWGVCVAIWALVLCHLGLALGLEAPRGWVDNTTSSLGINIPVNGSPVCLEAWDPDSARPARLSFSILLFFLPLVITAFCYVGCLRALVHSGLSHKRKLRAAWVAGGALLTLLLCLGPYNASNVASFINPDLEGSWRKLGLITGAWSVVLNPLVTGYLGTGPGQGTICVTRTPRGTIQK
T2 sequence (O14842 whole entry, the tested form may be a part): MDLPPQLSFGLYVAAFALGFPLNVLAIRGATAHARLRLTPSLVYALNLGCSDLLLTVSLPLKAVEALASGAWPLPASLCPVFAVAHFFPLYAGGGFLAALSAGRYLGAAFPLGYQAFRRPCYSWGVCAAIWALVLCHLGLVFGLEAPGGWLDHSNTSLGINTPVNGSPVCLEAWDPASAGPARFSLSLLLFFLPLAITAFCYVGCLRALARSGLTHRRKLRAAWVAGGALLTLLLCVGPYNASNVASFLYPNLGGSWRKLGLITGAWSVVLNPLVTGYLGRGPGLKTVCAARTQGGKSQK
T1 sequence (O14842 whole entry, the tested form may be a part): as above
T3 sequence (Q76JU9 whole entry): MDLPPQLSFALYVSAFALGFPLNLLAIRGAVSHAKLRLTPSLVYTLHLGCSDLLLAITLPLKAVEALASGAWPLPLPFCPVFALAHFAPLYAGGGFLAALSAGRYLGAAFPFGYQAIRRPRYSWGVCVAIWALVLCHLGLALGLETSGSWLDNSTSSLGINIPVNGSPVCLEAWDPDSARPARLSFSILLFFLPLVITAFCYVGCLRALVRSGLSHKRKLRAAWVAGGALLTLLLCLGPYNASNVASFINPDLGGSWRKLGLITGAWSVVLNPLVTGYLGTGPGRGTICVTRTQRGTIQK

In the case of `CCCCCCCCC#CCC#CCC#CCCCC(=O)O` [5.8.11-eicosatriynoic acid], the “response (increase in intracellular calcium level) of GPR40-expressing CHO-K1 cells” value (human-derived GPR40) is reported as “specifically responsive”.

In the case of `CCCCCC#CCC#CCC#CCC#CCCCC(=O)O` [5.8.11.14-eicosatetraynoic acid], the “response (increase in intracellular calcium level) of GPR40-expressing CHO-K1 cells” value (human-derived GPR40) is reported as “specifically responsive”.

With `CCCC(=O)O` [Butyric acid (C4), Butyric acid] the “insulin secretion enhancing activity” value [1] was “did not show any significant insulin secretion enhancing activity”, the “EC50 Human GPR40” value (human GPR40) was “inactive” and the “EC50 Mouse GPR40” value (Mouse GPR40) was “inactive”. For the same compound, the “EC50 Rat GPR40” value (Rat GPR40) was “inactive” and the “intracellular Ca^2+ level in MIN6” value (MIN6 cells) was “not observed”.

With `CCCCCCCCCCCC(=O)O` [Lauric acid (C12), Lauric acid] the “response (increase in intracellular calcium level) of GPR40-expressing CHO-K1 cells” value (human-derived GPR40) was “specifically responsive”, the EC50 (human GPR40; read-out: EC50 Human GPR40) was 5.7 ± 1.4 µM and the EC50 (Mouse GPR40; read-out: EC50 Mouse GPR40) was 5.6 ± 1.6 µM. It also gave an EC50 (Rat GPR40; read-out: EC50 Rat GPR40) of 13 ± 3.3 µM.

In the case of `CCCCC/C=C\C/C=C\CCCCCCCC(=O)OC` [Methyl linolate], the “insulin secretion enhancing activity” value [1] is reported as “did not show any significant insulin secretion enhancing activity”, the “EC50 Human GPR40” value (human GPR40) is reported as “inactive” and the “EC50 Mouse GPR40” value (Mouse GPR40) is reported as “inactive”. For the same compound, the “EC50 Rat GPR40” value (Rat GPR40) was “inactive” and the “intracellular Ca^2+ level in MIN6” value (MIN6 cells) was “not observed”.

`CCCCC/C=C\C/C=C\C/C=C\C/C=C\CCCCCC(=O)O` [adrenic acid] was tested, and the “response (increase in intracellular calcium level) of GPR40-expressing CHO-K1 cells” value (human-derived GPR40) was “specifically responsive”.

In the case of `CC(C)=CCCC(C)=CCCC(C)=CC(=O)O` [farnesoic acid], the “response (increase in intracellular calcium level) of GPR40-expressing CHO-K1 cells” value (human-derived GPR40) is reported as “specifically responsive”.

In the case of docosatrienoic acid, the “response (increase in intracellular calcium level) of GPR40-expressing CHO-K1 cells” value (human-derived GPR40) is reported as “specifically responsive”.

In the case of eicosadienoic acid, the “response (increase in intracellular calcium level) of GPR40-expressing CHO-K1 cells” value (human-derived GPR40) is reported as “specifically responsive”.

In the case of eicosatrienoic acid, the “response (increase in intracellular calcium level) of GPR40-expressing CHO-K1 cells” value (human-derived GPR40) is reported as “specifically responsive”.
